Laboratory results from patent publication US9447086B2, “6-amino acid heteroaryldihydropyrimidines for the treatment and prophylaxis of hepatitis B virus infection” (priority 2012, dated 2016).
Where two headings read alike, the source gives them in different places. Marks after values point to notes of the source that are not given here.

Key:
[1] = Mouse SDPK (single dose PK in male ICR mouse, plasma and liver); format: in vivo; settings: male ICR mice; for bioavailability / AUC(0-inf) / clearance: mouse; for bioavailability: 1 mg/kg IV, 3 mg/kg PO, read-out: F (bioavailability); for clearance: read-out: Plasma Cl (IV)
Description: The single dose PK in male ICR mouse was performed to assess their pharmacokinetic properties. Two groups of animals were dosed via either bolus intravenous (IV) or oral gavage (PO) of the respective compound. The animals for oral administration were fasted overnight prior to dosing and food was resumed 4 hours postdose. Blood samples (approximately 400 μL) were collected via cardiac puncture after euthanasia by carbon dioxide inhalation at 2 mins, 5 mins, 15 mins, 30 mins, 1 h, 2 hrs, 4 hrs, 6 hrs, 8 hrs, and 24 hrs postdose for IV group, and at 5 mins, 15 mins, 30 mins, 1 h, 2 hrs, 4 hrs, 6 hrs, 8 hrs, and 24 hrs postdose for PO group. Blood samples were placed into tubes containing sodium heparin and centrifuged at 8000 rpm for 6 minutes at 4° C. to separate plasma from the samples. Following centrifugation, the resulting plasma was transferred to clean tubes for bioanalysis on LC/MS/MS. The pharmacokinetic parameters were calculated using non-compartmental module of WinNonlin® Professional 5.2.

[2] = literature data, Deres K. et al. Science 2003, 893-896; cited from earlier work
HBV [3] = assay: Anti-HBV activity in vitro in HepG2.2.15 cells (extracellular HBV DNA by qPCR); format: cell-based, Hepatitis B virus; settings: HepG2.2.15 cells, in-house data, read-out: EC50
Summary of the method: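 Supernatant HBV DNA was measured by qPCR after viral DNA extraction. Samples came from 5-day cultures of HepG2.2.15 cells, an HBV-genome-transfected HepG2 line, exposed to half-log compound dilutions in medium containing 0.5% DMSO.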

HBV [4] = settings: literature data, Deres K. et al. Science 2003, 893-896; cited from earlier work
[5] = Lyophilisation solubility assay (Lysa); format: physicochemical; settings: phosphate buffer, pH 6.5, aqueous buffer, thermodynamic from solid
Summary of the method: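 Solubility in μg/mL is read by UV or HPLC-UV on filtrate, neat and diluted 1/10. Before filtration, the residue from evaporated 10 mM DMSO stock was taken up in pH 6.5 0.05 M phosphate buffer, then stirred 1 h, shaken 2 h and stood overnight, in duplicate.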

[6] = Cytotoxicity (CC50) in HepDE19 cells, CCK-8 cell viability; format: cell-based; settings: human, HepDE19 cells; read-out: CC50
Summary of the method: (§1)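 HBV-transfected HepG2-derived HepDE19 cells grown in DMEM-F12 with 10% FBS and G418. Viability read five days after treatment by CCK-8, 2 h at 37 °C, absorbance at 450 and 630 nm.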

[7] = Metabolic stability study in human microsome; format: in vitro ADME
Summary of the method: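 Depletion of 1 μM compound followed by LC-MS/MS over 0–30 min (0, 3, 6, 9, 15, 30 min) after methanol quench. Incubations at 37 °C, pH 7.4 phosphate buffer, 0.5 mg/mL microsomal protein, with NADPH (1 mM) or a regenerating system as cofactor; controls lacked cofactor.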

HBV [8] = assay: Selectivity index (CC50 value/EC50 value); format: cell-based, Hepatitis B virus
Summary of the method: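 Ratio of CC50 to EC50, measuring antiviral activity against HBV relative to cytotoxicity in vitro; higher values indicate greater separation between viral inhibition and cell death.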

HepDE19 cells = assay: Cytotoxicity (CC50) in HepDE19 cells, CCK-8 cell viability; format: cell-based
Summary of the method: as §1

[9] = plasma, dose 1 mg/kg IV, read-out: Plasma AUC(0-∞) (IV)
[10] = plasma, dose 3 mg/kg PO, read-out: Plasma AUC(0-∞) (PO)

Q: Which “F (bioavailability)” value ([1]; plasma, 5 mg/kg IV, 30 mg/kg PO) does the source give for COC(=O)C1=C(C)NC(c2ncc(F)cc2F)=N[C@H]1c1ccc(F)cc1Cl [Bay 41-4109, reference compound] here?
A: 21%

Q: What about the “Plasma AUC(0-∞) (IV)” value ([1]; plasma, dose 5 mg/kg IV) of the same compound?
A: 1380 ng·h/mL

Q: And the “Plasma Cl (IV)” value ([1]; plasma, dose 5 mg/kg IV)?
A: 60 mL/min/kg

Q: And the “Plasma AUC(0-∞) (PO)” value ([1]; plasma, dose 30 mg/kg PO)?
A: 1740 ng·h/mL

Q: What about the “F (bioavailability)” value [2] of the same compound?
A: (31^1) %

Q: And the “Plasma Cl (IV)” value [2]?
A: (67^1) mL/min/kg

Q: And the EC50 (HBV [3])?
A: 87 nM

Q: What about the EC50 (HBV [4]) of the same compound?
A: 50 nM

Q: For COC(=O)C1=C(CN2CC(F)(F)C[C@H]2C(=O)O)NC(c2nccs2)=N[C@H]1c1ccc(F)cc1Cl [Example 2, (R)-6-((S)-2-Carboxy-4,4-difluoro-pyrrolidin-1-ylmethyl)-4-(2-chloro-4-fluoro-phenyl)-2-thiazol-2-yl-1,4-dihydro-pyrimidine-5-carboxylic acid methyl ester], which “Liver AUC(0-∞) (PO)” value ([1]; dose 3 mg/kg PO) is on record?
A: 18000 ng·h/mL

Q: And the bioavailability ([1]; plasma)?
A: 94%

Q: And the AUC(0-inf) [1, 9]?
A: 995 ng·h/mL

Q: And the clearance ([1]; plasma, dose 1 mg/kg IV)?
A: 17 mL/min/kg

Q: And the AUC(0-inf) [1, 10]?
A: 2790 ng·h/mL

Q: What about the solubility thermodynamic [5] of the same compound?
A: > 698 µg/mL

Q: What about the EC50 (HBV [3]; Hepatitis B virus) of the same compound?
A: 2.7 nM

Q: What about the CC50 at 5 days [6] of the same compound?
A: 85000 nM

Q: And the “Human Hepatic Clearance” value [7]?
A: 3.65 mL/min/kg

Q: And the “Selectivity index (CC50/EC50)” value (HBV [8])?
A: 31481

Q: With COC(=O)C1=C(CN2CCOC[C@H]2C(=O)O)N=C(c2nccs2)N[C@H]1c1ccc(F)cc1Cl [Example 5, (S)-4-[(R)-6-(2-Chloro-4-fluoro-phenyl)-5-methoxycarbonyl-2-thiazol-2-yl-3,6-dihydro-pyrimidin-4-ylmethyl]-morpholine-3-carboxylic acid] as the compound, how does the “Liver AUC(0-∞) (PO)” value ([1]; dose 3 mg/kg PO) read?
A: 11800 ng·h/mL

Q: And the “Plasma AUC(0-∞) (PO)” value ([1]; plasma, dose 3 mg/kg PO)?
A: 962 ng·h/mL

Q: What about the bioavailability ([1]; plasma) of the same compound?
A: 37%

Q: And the AUC(0-inf) [1, 9]?
A: 878 ng·h/mL

Q: What about the clearance ([1]; plasma, dose 1 mg/kg IV) of the same compound?
A: 19 mL/min/kg

Q: And the solubility thermodynamic [5]?
A: > 660 µg/mL

Q: And the CC50 (HepDE19 cells)?
A: > 100000 nM

Q: What about the “Human Hepatic Clearance” value [7] of the same compound?
A: 2.7 mL/min/kg

Q: Which results are given for COC(=O)C1=C(CN2CC(F)(F)C[C@H]2C(=O)O)NC(c2nc(C)cs2)=N[C@H]1c1ccc(F)cc1Cl [Example 16, (R)-6-((S)-2-Carboxy-4,4-difluoro-pyrrolidin-1-ylmethyl)-4-(2-chloro-4-fluoro-phenyl)-2-(4-methyl-thiazol-2-yl)-1,4-dihydro-pyrimidine-5-carboxylic acid methyl ester]?
A: Liver AUC(0-∞) (PO) ([1]; dose 3 mg/kg PO): 35200 ng·h/mL; bioavailability ([1]; plasma): 69%; AUC(0-inf) [1, 9]: 290 ng·h/mL; clearance ([1]; plasma, dose 1 mg/kg IV): 57 mL/min/kg; AUC(0-inf) [1, 10]: 598 ng·h/mL; solubility thermodynamic [5]: > 622 µg/mL; EC50 (HBV [3]; Hepatitis B virus): 2 nM; CC50 at 5 days [6]: 30000 nM; Human Hepatic Clearance [7]: 6.35 mL/min/kg; Selectivity index (CC50/EC50) (HBV [8]): 15000
